Reference: PMC11477289, “Low-Basicity 5-HT6 Receptor Ligands from the Group of Cyclic Arylguanidine Derivatives and Their Antiproliferative Activity Evaluation” (International Journal of Molecular Sciences, 2024)

Key:
U-251 glioblastoma cells = test: Antiproliferative activity (MTS), U-251; details: Homo sapiens, U-251, 72 h, read-out: IC50 Values U-251
human 5-HT6 = target: T1, human 5-HT6 (Homo sapiens, UniProt P50406); test: [3H]-LSD radioligand binding assay, 5-HT6R; details: HEK293 expressing human 5-HT6R, read-out: 5-HT6 Ki
T1 construct: expressed in transfected cells
Protocol: Next, the ligands’ affinity for the 5-HT6 receptors was evaluated in the [^3H]-LSD radioligand binding assay. Experiments were performed in a stable HEK293 cell line expressing the human 5-HT6R.
The pellets were stored at −80 °C.

U87MG glioblastoma cells = test: Antiproliferative activity (MTS), U87MG; details: Homo sapiens, U-87 MG, 72 h, read-out: IC50 Values U87MG
[1] = Affinity to phospholipids, IAM column (CHI IAM); type: physicochemical; details: IAM.PC.DD2 column, pH 7.4
Source text: (§1) We began with an assay for lipophilicity, affinity for phospholipids (for 40 compounds), and drug binding to human serum albumin (HSA) (for 20 compounds), using chromatographic protocols developed by Valko [46] and implemented in our laboratory [47]. […] These methods allowed the determination of chromatographic hydrophobicity indices (CHIs), binding to HSA (%HSA), and phospholipids (CHIIAM) using a single-gradient elution experiment and comparison to reference substances.

[2] = Chromatographic hydrophobicity index on C18 column (lipophilicity); type: physicochemical
Source text: as §1

[3] = test system: MCF7 breast carcinoma cell line; test: Antiproliferative activity (MTS), MCF7; details: Homo sapiens, MCF7, 72 h, read-out: IC50 Values MCF7
[4] = test system: 1321N1 astrocytoma cell line; test: Antiproliferative activity (MTS), 1321N1; details: Homo sapiens, 1321-N1, 72 h, read-out: IC50 Values 1321N1
[5] = test system: LN-229 glioblastoma cell line; test: Antiproliferative activity (MTS), LN-229; details: Homo sapiens, LN-229, 72 h, read-out: IC50 Values LN-229
[6] = target: human serum albumin (HSA) (Homo sapiens, UniProt P02768); test: Binding to HSA, Chiralpak HSA column; details: Chiralpak HSA column
Source text: We began with an assay for lipophilicity, affinity for phospholipids (for 40 compounds), and drug binding to human serum albumin (HSA) (for 20 compounds), using chromatographic protocols developed by Valko [46] and implemented in our laboratory. Compounds with the highest affinity for 5-HT6R and those showing the most promising ADMET parameters, including the possibility of BBB penetration, DDI, and lipophilicity, determined in silico in SwissADME [45], were selected for testing. These methods allowed the determination of chromatographic hydrophobicity indices (CHIs), binding to HSA (%HSA), and phospholipids (CHIIAM) using a single-gradient elution experiment and comparison to reference substances.
The use of columns modified with plasma proteins, such as HSA, also allows for the estimation of binding to HSA, which is the most dominant plasma protein (PP). Binding to PP affects drug pharmacokinetics, such as distribution, half-life, and clearance.
The mobile phase flow rate was 1.5 mL/min, and the column was maintained at 30 °C. • Chiralpak® HSA (50 mm × 4 mm; 5 µm with safety guard column; Daicel Chiral Technologies, West Chester, PA, USA), mobile phase A: 50 mM ammonium acetate, mobile phase B: HPLC-grade isopropanol (VWR International, Leuven, Belgium). For the first 15 min, the linear gradient from 0 to 20% isopropanol was applied and then held at 20% isopropanol for 12 min. In the last 5 min of the sequence, the mobile phase mixture received a pure ammonium acetate solution. The column temperature was held at 30 °C, whereas the flow rate was 0.9 mL/min.
The reference substances for the calibration of HSA, C18, and IAM columns were purchased, respectively: acetanilide, butyrophenone, diclofenac, and octanonophenone (Alfa Aesar, Haverhill, MA, USA); acetophenone, benzimidazole, colchicine, indole, indometacin, paracetamol, and theophylline (Sigma-Aldrich, Steinheim, Germany); nicardipine and nizatidine (Cayman Chemical, Ann Arbor, MI, USA); carbamazepine, heptanophenone, hexanophenone, propiophenone, and valerophenone (Acros Organic, Pittsburg, PA, USA). Before chromatographic experiments, solutes were dissolved in dimethyl sulfoxide (Avantor Performance Materials Poland S.A., Gliwice, Poland) to obtain a 200 µg/mL concentration. The detection was performed in the UV region at the wavelength from 190 nm to 300 nm. The injected volume was 5 μL, and each compound was analyzed in triplicate.

[7] = test system: AsPC-1 pancreas adenocarcinoma cell line; test: Antiproliferative activity (MTS), AsPC-1; details: Homo sapiens, ASPC1, 72 h, read-out: IC50 Values AsPC-1

T1 sequence (P50406 whole entry): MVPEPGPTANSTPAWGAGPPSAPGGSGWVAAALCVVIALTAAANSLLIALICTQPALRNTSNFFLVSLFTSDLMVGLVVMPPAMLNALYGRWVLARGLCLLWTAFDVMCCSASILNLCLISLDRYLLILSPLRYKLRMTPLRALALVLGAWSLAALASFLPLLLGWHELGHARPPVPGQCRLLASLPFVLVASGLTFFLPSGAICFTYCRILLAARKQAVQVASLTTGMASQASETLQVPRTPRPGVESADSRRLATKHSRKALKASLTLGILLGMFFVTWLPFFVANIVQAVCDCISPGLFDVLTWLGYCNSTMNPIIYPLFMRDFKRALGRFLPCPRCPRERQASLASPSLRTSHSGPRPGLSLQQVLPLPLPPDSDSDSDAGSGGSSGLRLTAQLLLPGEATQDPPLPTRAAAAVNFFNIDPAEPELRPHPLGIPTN
Sequence of human serum albumin (HSA) (P02768 25-609): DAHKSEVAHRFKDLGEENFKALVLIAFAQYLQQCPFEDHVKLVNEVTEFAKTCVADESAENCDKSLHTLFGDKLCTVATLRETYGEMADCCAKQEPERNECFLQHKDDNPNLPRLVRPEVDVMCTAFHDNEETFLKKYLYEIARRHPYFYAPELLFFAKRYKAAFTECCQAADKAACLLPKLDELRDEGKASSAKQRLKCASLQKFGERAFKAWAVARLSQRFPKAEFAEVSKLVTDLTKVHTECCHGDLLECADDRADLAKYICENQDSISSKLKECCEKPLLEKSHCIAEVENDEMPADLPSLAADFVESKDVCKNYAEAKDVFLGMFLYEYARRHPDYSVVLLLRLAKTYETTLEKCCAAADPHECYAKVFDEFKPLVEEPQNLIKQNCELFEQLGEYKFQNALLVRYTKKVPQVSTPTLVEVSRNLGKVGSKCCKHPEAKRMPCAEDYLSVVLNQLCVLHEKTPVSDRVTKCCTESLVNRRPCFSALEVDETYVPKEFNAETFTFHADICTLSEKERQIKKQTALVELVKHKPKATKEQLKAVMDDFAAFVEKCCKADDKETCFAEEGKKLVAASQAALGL

Compound	IC50 (U-251 glioblastoma cells)	Ki (human 5-HT6)	IC50 (U87MG glioblastoma cells)	CHI IAM [1]	melting point	CHI C18 pH 2.6 [2]	CHI C18 pH 7.4 [2]	CHI C18 pH 10.5 [2]	IC50 [3]	IC50 [4]	IC50 [5]	%HSA [6]	logKHSA [6]	IC50 [7]	acid–base properties ([2]; comparison of CHI values at different pH levels)
COc1cccc2c1CNC(NS(=O)(=O)c1cccc3ccccc13)=N2 [PR 58, N -(5-methoxy-3,4-dihydroquinazolin-2-yl)naphthalene-1-sulfonamide]	> 25 µM	0.172 ± 0.041 µM	> 25 µM	41.4	245 to 249 °C	92.8	90.8	96.6	> 25 µM	> 25 µM	> 25 µM	97.3%	1.4	> 25 µM	–
O=S(=O)(NC1=Nc2ccccc2CCN1)c1cccc2ccccc12 [PR 78, N -(4,5-dihydro-3H-1,3-benzodiazepin-2-yl)naphthalene-1-sulfonamide]	> 25 µM	0.273 ± 0.068 µM	> 25 µM	–	178 to 180 °C	–	–	–	> 25 µM	> 25 µM	> 25 µM	–	–	> 25 µM	–
O=S(=O)(NC1=Nc2cccc(Cl)c2CN1)c1ccc(Cl)c2ccccc12 [PR 53, 4-chloro-N-(5-chloro-3,4-dihydroquinazolin-2-yl)naphthalene-1-sulfonamide]	> 25 µM	0.189 ± 0.042 µM	> 25 µM	51.6	217 to 223 °C	111.2	109.2	112.5	> 25 µM	> 25 µM	> 25 µM	99.5%	1.8	> 25 µM	–
O=S(=O)(NC1=Nc2ccccc2CN1)c1ccc2c(Cl)cccc2c1 [PR 30, 5-chloro-N-(3,4-dihydroquinazolin-2-yl)naphthalene-2-sulfonamide]	> 25 µM	0.972 ± 0.242 µM	–	45.2	192 to 195 °C	99.1	97.7	100.4	> 25 µM	–	> 25 µM	–	–	> 25 µM	–
O=S(=O)(NC1=Nc2ccccc2CN1)c1cccc(Cl)c1 [PR 19, 3-chloro-N-(3,4-dihydroquinazolin-2-yl)benzene-1-sulfonamide]	> 25 µM	0.521 ± 0.13 µM	> 25 µM	36.6	176 to 180 °C	83.7	83.2	87.3	> 25 µM	> 25 µM	> 25 µM	91.3%	1.0	> 25 µM	–
CC1NC(NS(=O)(=O)c2ccc3ccccc3c2)=Nc2ccc(Br)cc21 (stereo not shown) [PR 36, N -(6-bromo-4-methyl-3,4-dihydroquinazolin-2-yl)naphthalene-2-sulfonamide]	> 25 µM	29.4 ± 7.36 µM	> 25 µM	–	–	–	–	–	> 25 µM	> 25 µM	> 25 µM	–	–	> 25 µM	–
O=S(=O)(NC1=Nc2ccc(Cl)cc2CN1)c1cccc2ccccc12 [PR 47, N -(6-chloro-3,4-dihydroquinazolin-2-yl)naphthalene-1-sulfonamide]	–	0.341 ± 0.076 µM	> 25 µM	44.0	275 to 277 °C	96.5	95.3	98.1	–	> 25 µM	–	97.8%	1.5	–	–
O=S(=O)(NC1=Nc2ccccc2CN1)c1ccc(OC(F)(F)F)cc1 [PR 17, N -(3,4-dihydroquinazolin-2-yl)-4-(trifluoromethoxy)benzene-1-sulfonamide]	–	9.85 ± 2.46 µM	> 25 µM	38.7	161 to 163 °C	94.2	93.2	95.0	–	> 25 µM	–	93.7%	1.1	–	–
O=S(=O)(NC1=Nc2cccc(F)c2CN1)c1cccc2ccccc12 [PR 54, N -(5-fluoro-3,4-dihydroquinazolin-2-yl)naphthalene-1-sulfonamide]	–	0.381 ± 0.088 µM	> 25 µM	40.8	191 to 193 °C	90.8	89.4	92.4	–	> 25 µM	–	96.4%	1.3	–	–
Cc1cccc2c1CNC(NS(=O)(=O)c1cccc3ccccc13)=N2 [PR 61, N -(5-methyl-3,4-dihydroquinazolin-2-yl)naphthalene-1-sulfonamide]	–	0.412 ± 0.095 µM	> 25 µM	41.4	233 to 237 °C	93.1	91.8	94.2	–	> 25 µM	–	97.3%	1.4	–	–
CC1NC(NS(=O)(=O)c2cccc3ccccc23)=Nc2ccc(Br)cc21 (stereo not shown) [PR 75, N -(6-bromo-4-methyl-3,4-dihydroquinazolin-2-yl)naphthalene-1-sulfonamide]	–	0.484 ± 0.121 µM	> 25 µM	46.3	119 to 123 °C	103.2	101.2	105.6	–	> 25 µM	–	98.3%	1.6	–	–
O=S(=O)(NC1=Nc2ccccc2CN1)c1c(Cl)ccc2ccccc12 [PR 41, 2-chloro-N-(3,4-dihydroquinazolin-2-yl)naphthalene-1-sulfonamide]	–	0.21 ± 0.048 µM	> 25 µM	42.9	241 to 244 °C	95.8	93.1	96.2	–	> 25 µM	–	97.1%	1.4	–	–
O=S(=O)(Nc1nc2ccccc2[nH]1)c1cccc2ccccc12 [PR 11, N -(1H-1,3-benzodiazol-2-yl)naphthalene-1-sulfonamide]	> 25 µM	0.325 ± 0.081 µM	> 25 µM	39.3	> 315 °C	78.8	76.7	58.4	> 25 µM	> 25 µM	> 25 µM	95.7%	1.3	> 25 µM	acidic
